# From US20230087118A1, “IMIDAZO[1,2-a][sequence] DERIVATIVES AND THEIR USE IN THE TREATMENT OF DISEASE” (priority 2019, published 2023)
# Where a name gives a salt, the structure may show the parent alone.
# Biological target: T1, IRAK4 (Homo sapiens, UniProt Q9NWZ3)
# T1 sequence (Q9NWZ3 1-460): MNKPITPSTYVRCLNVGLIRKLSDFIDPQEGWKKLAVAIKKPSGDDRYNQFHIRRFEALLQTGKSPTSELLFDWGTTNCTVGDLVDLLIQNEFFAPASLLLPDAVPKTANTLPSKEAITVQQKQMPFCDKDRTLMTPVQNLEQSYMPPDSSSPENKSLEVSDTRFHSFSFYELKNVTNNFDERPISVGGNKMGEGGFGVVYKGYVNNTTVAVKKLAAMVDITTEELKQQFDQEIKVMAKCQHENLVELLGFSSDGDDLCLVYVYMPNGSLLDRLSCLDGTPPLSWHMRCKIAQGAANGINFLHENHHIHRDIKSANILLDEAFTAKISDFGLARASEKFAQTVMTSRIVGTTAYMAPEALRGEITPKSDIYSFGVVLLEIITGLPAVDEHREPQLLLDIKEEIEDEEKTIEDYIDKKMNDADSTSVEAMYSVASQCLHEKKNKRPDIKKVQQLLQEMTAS
# Test: 2-hour 10 μM ATP Biochemical Assay (MesoScale Detection format; IRAK4 phosphorylation of biotin labeled IRAK1 activation loop peptide)
# Conditions: 0.1 nM IRAK4
# Method: Compounds of the invention were assessed for their ability to inhibit IRAK4 activity. The inhibitory properties of the compounds of the invention described herein can be evidenced by testing in any one of the following assays.
# The 2-hour 10 μM ATP Biochemical Assay employs a MesoScale Detection (MSD) format. The kinase reaction is based on the IRAK4 phosphorylation of a biotin labeled peptide (IRAK1 activation loop sequence 360-389).
# The kinase reaction in 30 μl is carried out in wells of a 384 well polypropylene assay plate, with 0.1 nM IRAK4, 1.6 μM of biotinylated peptide substrate and 10 μM ATP in 50 mM Hepes, pH 7.5, 60 mM NaCl, 5 mM MgCl2, 0.25 mM MnCl2, 2 mM DTT, 0.01% BSA, and 1% DMSO (from compound DMSO stocks), for 2 hour at room temperature. The activity is quenched with 11 μl of 70 mM EDTA, pH 8.
# To detect the phosphorylated biotinylated peptide substrate, 30 μl of the quenched reaction mixture is added to equivalent wells of a 384 well streptavidin coated MesoScale plate (Meso Scale Discovery #L21SA-1). After a 1 hour incubation of the plate for 1 hour at room temperature with gentle mixing, the plate wells are washed 3 times with 50 mM Tris, pH 7.5, 150 mM NaCl, 0.02% Tween-20.
# A 25 μl volume of 1:500 anti-P-Threonine Rabbit polyclonal Antibody plus 1:500 Goat-anti-Rabbit Sulfo Tag Antibody (Meso Scale Discovery R32AB-1) in 50 mM Tris, pH 7.5, 150 mM NaCl, 0.02% Tween-20 plus 2% BSA is then added to each well. After a 1-hour incubation of the plate for 1 hour at room temperature with gentle mixing, the plate wells are washed, 3 times with 50 mM Tris, pH 7.5, 150 mM NaCl, 0.02% Tween-20. A 40 μl volume of 2× MSD Read Buffer (Meso Scale Discovery R92TC-1) is added to each well, and the plate is read immediately in an MSD Plate Reader (Meso Scale Discovery).
row,Compound,IC50 [µM]
1,COc1cc2nc(C3CCOCC3)cn2cc1C(=O)Nc1cc(F)c(F)c(C(F)F)c1 [Example 164],0.037
2,COc1cc2nc(C3CCOC3)cn2cc1C(=O)Nc1cccc(C(F)(F)F)n1 (centres unmarked) [Example 35],0.012
3,COc1cc2nc(C3CCOCC3)cn2cc1C(=O)Nc1cc(C)cc(F)c1 [Example 176],0.03
4,COc1cc2nc(C3CCOCC3)cn2cc1C(=O)Nc1cccc(OC)c1C [Example 160],0.07
5,COc1cc2nc(C3CCOCC3)cn2cc1C(=O)Nc1cccc(F)c1 [Example 165],0.024
6,COc1cc2nc(C3CCOCC3)cn2cc1C(=O)Nc1nc(C)c(Cl)s1 [Example 171],0.845
7,COc1cc2nc(C3CCOCC3)cn2cc1C(=O)Nc1cc(Cl)c(F)c(Cl)c1 [Example 119],0.792
8,COc1cc2nc(C3CCOCC3)cn2cc1C(=O)N[C@@H]1CCC[C@H](C2CC2)C1 (relative stereo) [Example 177],0.861
9,COc1cc2nc(C3(OC)CC3)cn2cc1C(=O)Nc1cccc(C(F)(F)F)n1 [Example 34],0.057
10,COc1cccc(NC(=O)c2ccc3nc(C4CCOCC4)cn3c2)n1 [Example 47],0.092
11,COc1cc2nc(C3CCOCC3)cn2cc1C(=O)N[C@@H]1COC[C@H]1F (racemic) [Example 123],0.741
12,COc1cc2nc(C3CCOCC3)cn2cc1C(=O)NC1CC(C)C1 (centres unmarked) [Example 134],0.632
13,COc1cccc(NC(=O)c2cn3cc(C45CC(C#N)(C4)C5)nc3cc2OC)n1 [Example 19],0.006
14,COc1cc2nc(C3CCOCC3)cn2cc1C(=O)Nc1scnc1C(C)C [Example 150],0.023
15,COc1cc2nc(C3CCOCC3)cn2cc1C(=O)Nc1cccc2c1CCOC2 [Example 180],0.019
16,COc1cccc(NC(=O)c2cn3cc(C4CC45CCOC5)nc3cc2OC)n1 (centres unmarked) [Example 16],0.008
17,COc1cccc(NC(=O)c2cn3cc(C4CCOC4)nc3cc2OC)n1 (centres unmarked) [Example 23],0.025
18,COc1cc2nc(C3CCOCC3)cn2cc1C(=O)NC1CCCC(F)C1 (centres unmarked) [Example 139],0.725
19,COc1cc2nc(C3CCOCC3)cn2cc1C(=O)NC1CCCC2(CC2)C1 (centres unmarked) [Example 126],0.66
20,COc1cc2nc(C3CCOCC3)cn2cc1C(=O)N[C@H]1CC[C@@H](OC)CC1 [Example 161],0.346

# Biological target: T1, IRAK4
# Test: biochemical
# Conditions: not given
row,Compound,IC50 [µM]
1,Cc1cnc2c(NC(=O)c3cn4cc(C56CCC(C5)OC6)nc4nc3OC(C)C)cnn2c1 (centres unmarked) [Example 433],0.0006
2,"CC(C)Oc1cc2nc(C3CC3)cn2cc1C(=O)Nc1cccc(CC#N)n1 [Example 519, N-(6-(cyanomethyl)pyridin-2-yl)-2-cyclopropyl-7-isopropoxy-imidazo[1,2-a]pyridine-6-carboxamide]",0.003
3,"CCOc1cc2nc([C@H]3C[C@@H]3F)cn2cc1C(=O)Nc1cccc(OC)n1 (single isomer, unassigned) [Example 66]",0.025
4,"COc1ncccc1NC(=O)c1cn2cc(C34COC(C)(C3)C4)nc2c(OC2CCC2)n1 [Example 347, 8-Cyclobutoxy-N-(2-methoxypyridin-3-yl)-2-(1-methyl-2-oxabicyclo[2.1.1]hexan-4-yl)imidazo[1,2-a]pyrazine-6-carboxamide]",0.0006
5,COc1cc2nc(C3CCOCC3)cn2cc1C(=O)Nc1ccn(C2CCCC2)n1 [Example 191],0.27
6,"CC(C)Oc1nc2nc(C34COC(C)(C3)C4)cn2cc1C(=O)Nc1cccn(C(F)F)c1=O [Example 388, N-(1-(difluoromethyl)-2-oxo-1,2-dihydropyridin-3-yl)-7-isopropoxy-2-(1-methyl-2-oxabicyclo[2.1.1]hexan-4-yl)imidazo[1,2-a]pyrimidine-6-carboxamide]",0.0002
7,"CCOc1nc(C(=O)Nc2cccc(C)c2F)cn2cc(C34COC(C)(C3)C4)nc12 [Example 496, 8-Ethoxy-N-(2-fluoro-3-methylphenyl)-2-(1-methyl-2-oxabicyclo[2.1.1]hexan-4-yl)imidazo[1,2-a]pyrazine-6-carboxamide]",0.0047
8,"CCOc1nc(C(=O)Nc2cccc(OC)n2)cn2cc(C34COC(C)(C3)C4)nc12 [Example 486, 8-Ethoxy-N-(6-methoxypyridin-2-yl)-2-(1-methyl-2-oxabicyclo[2.1.1]hexan-4-yl)imidazo[1,2-a]pyrazine-6-carboxamide]",0.0075
9,"COCCCc1cn2cc(C(=O)Nc3cccc(OC)n3)c(OC(C)C)cc2n1 [Example 103, 7-Isopropoxy-2-(3-methoxypropyl)-N-(6-methoxypyridin-2-yl)imidazo[1,2-a]pyridine-6-carboxamide]",0.0032
10,"CC(C)Oc1cc2nc(C34CCC(C)(C3)OC4)cn2cc1C(=O)Nc1cccc(C#N)n1 (centres unmarked) [Example 509, N-(6-cyanopyridin-2-yl)-7-isopropoxy-2-(1-methyl-2-oxabicyclo[2.2.1]heptan-4-yl)imidazo[1,2-a]pyridine-6-carboxamide]",0.0003
11,"CCOc1nc(C(=O)Nc2cccnc2OC)cn2cc([C@H]3CCOC3)nc12 (single isomer, unassigned) [Example 598]",0.0041
12,"CCOc1nc(C(=O)Nc2cccc(C(F)F)n2)cn2cc(C34CCC(C)(C3)OC4)nc12 (centres unmarked) [Example 274, N-(6-(difluoromethyl)pyridin-2-yl)-8-ethoxy-2-(1-methyl-2-oxabicyclo[2.2.1]heptan-4-yl)imidazo[1,2-a]pyrazine-6-carboxamide]",0.0016
13,"CC12CC(c3cn4cc(C(=O)Nc5cccc(C(F)F)n5)nc(OCC(F)F)c4n3)(CO1)C2 [Example 344, 8-(2,2-Difluoroethoxy)-N-(6-(difluoromethyl)pyridin-2-yl)-2-(1-methyl-2-oxabicyclo[2.1.1]hexan-4-yl)imidazo[1,2-a]pyrazine-6-carboxamide]",0.0034
14,CCOc1nc(C(=O)Nc2cccnc2OC)cn2cc(C3CCCOC3)nc12 (centres unmarked) [Example 224],0.0086
15,"CC(C)Oc1cc2nc([C@]34CC[C@H](C3)OC4)cn2cc1C(=O)Nc1ccn(C)n1 (single isomer, unassigned) [Example 581]",0.0037

# Same assay, conditions: IRAK4 Biochemical Assay (1 mM ATP, 2 h) IC50 (μM), 1 mM ATP, 2 h, 100 pM IRAK4
row,Compound,IC50 [µM]
1,"CC(C)Oc1cc2nc(C34COC(C)(C3)C4)cn2cc1C(=O)Nc1cc(F)n(C)n1 [Example 641, N-(5-fluoro-1-methyl-1H-pyrazol-3-yl)-7-isopropoxy-2-(1-methyl-2-oxabicyclo[2.1.1]hexan-4-yl)imidazo[1,2-a]pyridine-6-carboxamide trifluoroacetate]",0.0062
2,"Cc1cnc2c(NC(=O)c3cn4cc(C56COC(C)(C5)C6)nc4c(F)c3OC(C)C)cnn2c1 [Example 292, 8-Fluoro-7-isopropoxy-2-(1-methyl-2-oxabicyclo[2.1.1]hexan-4-yl)-N-(6-methylpyrazolo[1,5-a]pyrimidin-3-yl)imidazo[1,2-a]pyridine-6-carboxamide trifluoroacetate]",0.0026
3,"CC(C)Oc1nc2nc(C34COC(C)(C3)C4)cn2cc1C(=O)Nc1cnn(C)n1 [Example 365, 7-Isopropoxy-N-(2-methyl-2H-1,2,3-triazol-4-yl)-2-(1-methyl-2-oxabicyclo[2.1.1]hexan-4-yl)imidazo[1,2-a]pyrimidine-6-carboxamide trifluoroacetate]",0.0128
4,"CCOc1nc(C(=O)Nc2cccc3ccnn23)cn2cc(C34CCC(C)(C3)OC4)nc12 (centres unmarked) [Example 278, 8-Ethoxy-2-(1-methyl-2-oxabicyclo[2.2.1]heptan-4-yl)-N-(pyrazolo[1,5-a]pyridin-7-yl)imidazo[1,2-a]pyrazine-6-carboxamide trifluoroacetate]",0.0011
5,"O=C(Nc1cccc(C(F)F)n1)c1cn2cc(C3CC3)nc2cc1OC1CC(C(F)F)C1 (centres unmarked) [Example 477, 2-Cyclopropyl-7-(3-(difluoromethyl)cyclobutoxy)-N-(6-(difluoromethyl)pyridin-2-yl)imidazo[1,2-a]pyridine-6-carboxamide]",0.0011
6,"CCOc1cc2nc(C3(OC)CC3)cn2cc1C(=O)Nc1cccc(C(F)F)n1 [Example 390, N-(6-(difluoromethyl)pyridin-2-yl)-7-ethoxy-2-(1-methoxy-cyclopropyl)imidazo[1,2-a]pyridine-6-carboxamide hydrochloride]",0.009
